Measurements as given in patent US5843908A, “Pradimicins l and fl, and derivatives thereof” (Bristol-Myers Squibb Company, priority 1990, dated 1998).
Converted amounts (≈) assume the structure as drawn.

Columns and labels:
[1] = system: Candida tropicalis IAM 10241; assay: In vitro antifungal activity, serial agar dilution, yeast morphology agar (Tables 4b, 4c); assay type: cell-based; settings: IAM10241, 60 h, Candida tropicalis IAM 10241 ("IAN 10241" in Table 4b), 1/15 M phosphate buffer, 10^6 cells/ml, 40 hours at 28° C.
Description: (§1) Representative compounds of the present invention were tested in vitro against various fungi by serial agar dilution method in either Sabouraud dextrose agar or yeast morphology agar containing 1/15 M phosphate buffer. Thus, approximately 0.003 ml of fungal suspension containing 10^6 -10^7 cells/ml was applied to the surface of agar plates containing the test antibiotic. The minimum inhibitory concentration (MIC) values for the test compounds were recorded after the cultures had been incubated for 40-60 hours at 28° C.
(§2) ^1. Determined after incubation for 40 hours at 28° C.
(§3) (Trichophyton mentagrophytes: 60 hours, 28° C.).
(§4) ^2. Inoculum size 10^6 cells/ml (Trichophyton mentagrophytes:
(§5) 10^7 cells/ml) in yeast morphology agar containing 1/15 M phosphate
(§6) (Trichophyton mentaprophytes: 60 hours, 28° C.).

[2] = system: Trichophyton mentagrophytes #4329; assay: as above; assay type: cell-based; settings: 1/15 M phosphate buffer, 10^7 cells/ml, 60 hours, 28° C.
Description: as §1, §2, §3, §4, §5, §6

[3] = system: Candida tropicalis 85-8 (Kitasato); assay: as above; assay type: cell-based; settings: 60 h, 1/15 M phosphate buffer, 10^6 cells/ml, 40 hours at 28° C.
Description: as §1, §2, §3, §4, §5, §6

[4] = system: Saccharomyces cerevisiae ATCC 9763; assay: as above; assay type: cell-based; settings: ATCC9763, 60 h, 1/15 M phosphate buffer, 10^6 cells/ml, 40 hours at 28° C.
Description: as §1, §2, §3, §4, §5, §6

[5] = system: Cryptococcus neoformans IAM 4514; assay: as above; assay type: cell-based; settings: IAM4514, 60 h, 1/15 M phosphate buffer, 10^6 cells/ml, 40 hours at 28° C.
Description: as §1, §2, §3, §4, §5, §6

[6] = system: Candida albicans 83-2-14 (Juntendo); assay: as above; assay type: cell-based; settings: 60 h, 1/15 M phosphate buffer, 10^6 cells/ml, 40 hours at 28° C.
Description: as §1, §2, §3, §4, §5, §6

[7] = system: Candida albicans ATCC 32354 (B311); assay: as above; assay type: cell-based; settings: ATCC32354, 60 h, 1/15 M phosphate buffer, 10^6 cells/ml, 40 hours at 28° C.
Description: as §1, §2, §3, §4, §5, §6

Candida albicans A9540 = assay: as above; assay type: cell-based; settings: 60 h, 1/15 M phosphate buffer, 10^6 cells/ml, 40 hours at 28° C.
Description: as §1, §2, §3, §4, §5, §6

[8] = system: Aspergillus fumigatus IAM 2034; assay: as above; assay type: cell-based; settings: IAM2034, 60 h, 1/15 M phosphate buffer, 10^6 cells/ml, 40 hours at 28° C.
Description: as §1, §2, §3, §4, §5, §6

[9] = system: Cryptococcus neoformans D49; assay: as above; assay type: cell-based; settings: 60 h, 1/15 M phosphate buffer, 10^6 cells/ml, 40 hours at 28° C.
Description: as §1, §2, §3, §4, §5, §6

[10] = system: Petriellidium boydii IF08078; assay: In vitro antifungal activity, serial agar dilution, Sabouraud dextrose agar (Table 4a); assay type: cell-based; settings: Scedosporium boydii, 10^6 CFU/ml, 40-60 hours at 28° C.
Description: as §1
(§7) Medium: Sabouraud dextrose agar

T. mentagrophytes #4329 = assay: as above; assay type: cell-based; settings: Trichophyton mentagrophytes, 10^6 CFU/ml, 40-60 hours at 28° C.
Description: as §1, §7

Mucor spinosus IF05317 = assay: as above; assay type: cell-based; settings: 10^6 CFU/ml, 40-60 hours at 28° C.
Description: as §1, §7

[11] = system: Trichophyton mentagrophytes D155; assay: as above; assay type: cell-based; settings: 10^6 CFU/ml, 40-60 hours at 28° C.
Description: as §1, §7

Candida albicans IAM4888 = assay: as above; assay type: cell-based; settings: 10^6 CFU/ml, 40-60 hours at 28° C.
Description: as §1, §7

C. albicans A9540 = assay: as above; assay type: cell-based; settings: Candida albicans, 10^6 CFU/ml, 40-60 hours at 28° C.
Description: as §1, §7

C. neoformans IAM4514 = assay: as above; assay type: cell-based; settings: Cryptococcus neoformans, 10^6 CFU/ml, 40-60 hours at 28° C.
Description: as §1, §7

A. fumigatus IAM2034 = assay: as above; assay type: cell-based; settings: Aspergillus fumigatus, 10^6 CFU/ml, 40-60 hours at 28° C.
Description: as §1, §7

[12] = system: Aspergillus fumigatus IAM2530; assay: as above; assay type: cell-based; settings: 10^6 CFU/ml, 40-60 hours at 28° C.
Description: as §1, §7

[13] = system: Fusarium moniliforme A2284; assay: as above; assay type: cell-based; settings: Fusarium verticillioides, 10^6 CFU/ml, 40-60 hours at 28° C.
Description: as §1, §7

[14] = system: Sporothrix schenckii IF08158; assay: as above; assay type: cell-based; settings: 10^6 CFU/ml, 40-60 hours at 28° C.
Description: as §1, §7

[15] = system: Blastomyces dermatitidis D40; assay: as above; assay type: cell-based; settings: 10^6 CFU/ml, 40-60 hours at 28° C.
Description: as §1, §7

[16] = system: Cryptococcus neoformans D49; assay: as above; assay type: cell-based; settings: 10^6 CFU/ml, 40-60 hours at 28° C.
Description: as §1, §7

[17] = system: Candida albicans ATCC 38247 (polyene-R); assay: In vitro antifungal activity, serial agar dilution, yeast morphology agar (Table 4b); assay type: cell-based; settings: ATCC38247, 60 h
Description: as §1, §2, §3, §4, §5

Solubility = assay type: physicochemical

SMILES | MIC [1] [µg/mL] | MIC [2] [µg/mL] | MIC [3] [µg/mL] | MIC [4] [µg/mL] | MIC [5] [µg/mL] | MIC [6] [µg/mL] | MIC [7] [µg/mL] | MIC (Candida albicans A9540) [µg/mL] | MIC [8] [µg/mL] | MIC [9] [µg/mL] | MIC [10] [µg/mL] | MIC (T. mentagrophytes #4329) [µg/mL] | MIC (Mucor spinosus IF05317) [µg/mL] | MIC [11] [µg/mL] | MIC (Candida albicans IAM4888) [µg/mL] | MIC (C. albicans A9540) [µg/mL] | MIC (C. neoformans IAM4514) [µg/mL] | MIC (A. fumigatus IAM2034) [µg/mL] | MIC [12] [µg/mL] | MIC [13] [µg/mL] | also measured
COc1cc(O)c2c(c1)C(=O)c1c(cc3c(c1O)-c1c(cc(C)c(C(=O)N[C@H](CO)C(=O)O)c1O)[C@H](O[C@@H]1O[C@H](C)[C@H](N(C)C)[C@H](O[C@@H]4O[C@H](CO)[C@@H](O)[C@H](O)[C@H]4O)[C@H]1O)[C@H]3O)C2=O [N-Methyl Pradimicin FL] | 12.5 (≈ 13.9 µM) | 6.3 (≈ 6.99 µM) | 12.5 (≈ 13.9 µM) | 3.1 (≈ 3.44 µM) | 6.3 (≈ 6.99 µM) | 6.3 (≈ 6.99 µM) | 6.3 (≈ 6.99 µM) | 6.3 (≈ 6.99 µM) | 6.3 (≈ 6.99 µM) | 6.3 (≈ 6.99 µM) | – | – | – | – | – | – | – | – | – | – | –
COc1cc(O)c2c(c1)C(=O)c1c(cc3c(c1O)-c1c(cc(C)c(C(=O)N[C@H](C)C(=O)O)c1O)[C@H](O[C@@H]1O[C@H](C)[C@H](N(C)C)[C@H](O[C@@H]4O[C@H](CO)[C@@H](O)[C@H](O)[C@H]4O)[C@H]1O)[C@H]3O)C2=O [N-Methyl Pradimicin L] | – | – | – | – | – | – | – | – | – | – | 25 (≈ 28.3 µM) | 25 (≈ 28.3 µM) | > 100 | 25 (≈ 28.3 µM) | 12.5 (≈ 14.1 µM) | 12.5 (≈ 14.1 µM) | 6.3 (≈ 7.12 µM) | 6.3 (≈ 7.12 µM) | 6.3 (≈ 7.12 µM) | 12.5 (≈ 14.1 µM) | MIC [14]: 1.6 µg/mL (≈ 1.81 µM); MIC [15]: 6.3 µg/mL (≈ 7.12 µM); MIC [16]: 6.3 µg/mL (≈ 7.12 µM)
CN[C@@H]1[C@H](O[C@@H]2OC[C@@H](O)[C@H](O)[C@H]2O)[C@@H](O)[C@H](O[C@H]2c3cc(C)c(C(=O)N[C@H](C)C(=O)O)c(O)c3-c3c(cc4c(c3O)C(=O)c3cc(OC)cc(O)c3C4=O)[C@@H]2O)O[C@@H]1C [Pradimicin A, pradimicin A, reference compound] | > 100 | 3.1 (≈ 3.69 µM) | 12.5 (≈ 14.9 µM) | 6.3 (≈ 7.49 µM) | 1.6 (≈ 1.9 µM) | 12.5 (≈ 14.9 µM) | 6.3 (≈ 7.49 µM) | 12.5 (≈ 14.9 µM) | 1.6 (≈ 1.9 µM) | 1.6 (≈ 1.9 µM) | 6.3 (≈ 7.49 µM) | 6.3 (≈ 7.49 µM) | > 100 | 1.6 (≈ 1.9 µM) | 6.3 (≈ 7.49 µM) | 100 (≈ 119 µM) | 1.6 (≈ 1.9 µM) | 3.1 (≈ 3.69 µM) | 1.6 (≈ 1.9 µM) | 6.3 (≈ 7.49 µM) | MIC [14]: 1.6 µg/mL (≈ 1.9 µM); MIC [15]: 6.3 µg/mL (≈ 7.49 µM); MIC [16]: 1.6 µg/mL (≈ 1.9 µM); MIC [17]: 6.3 µg/mL (≈ 7.49 µM)
CN[C@@H]1[C@H](O[C@@H]2O[C@H](CO)[C@@H](O)[C@H](O)[C@H]2O)[C@@H](O)[C@H](O[C@H]2c3cc(C)c(C(=O)N[C@H](CO)C(=O)O)c(O)c3-c3c(cc4c(c3O)C(=O)c3cc(OC)cc(O)c3C4=O)[C@@H]2O)O[C@@H]1C [Pradimicin FL, pradimicin FL] | 6.3 (≈ 7.1 µM) | 3.1 (≈ 3.5 µM) | 6.3 (≈ 7.1 µM) | 3.1 (≈ 3.5 µM) | 1.6 (≈ 1.8 µM) | 6.3 (≈ 7.1 µM) | 6.3 (≈ 7.1 µM) | 6.3 (≈ 7.1 µM) | 3.1 (≈ 3.5 µM) | 3.1 (≈ 3.5 µM) | – | – | – | – | – | – | – | – | – | – | MIC [17]: 3.1 µg/mL (≈ 3.5 µM)
CN[C@@H]1[C@H](O[C@@H]2O[C@H](CO)[C@@H](O)[C@H](O)[C@H]2O)[C@@H](O)[C@H](O[C@H]2c3cc(C)c(C(=O)N[C@H](C)C(=O)O)c(O)c3-c3c(cc4c(c3O)C(=O)c3cc(OC)cc(O)c3C4=O)[C@@H]2O)O[C@@H]1C [Pradimicin L, pradimicin L] | 100 (≈ 115 µM) | 3.1 (≈ 3.56 µM) | > 100 | 6.3 (≈ 7.23 µM) | 0.8 (≈ 0.919 µM) | 100 (≈ 115 µM) | 6.3 (≈ 7.23 µM) | 25 (≈ 28.7 µM) | 3.1 (≈ 3.56 µM) | 1.6 (≈ 1.84 µM) | 25 (≈ 28.7 µM) | 12.5 (≈ 14.4 µM) | > 100 | 6.3 (≈ 7.23 µM) | 6.3 (≈ 7.23 µM) | 12.5 (≈ 14.4 µM) | 0.8 (≈ 0.919 µM) | 3.1 (≈ 3.56 µM) | 3.1 (≈ 3.56 µM) | 6.3 (≈ 7.23 µM) | MIC [14]: 0.8 µg/mL (≈ 0.919 µM); MIC [15]: 3.1 µg/mL (≈ 3.56 µM); MIC [16]: 0.8 µg/mL (≈ 0.919 µM); Solubility (Solubility; dimethyl sulfoxide, dimethyl-formamide, acidic or alkaline water): Soluble in dimethyl sulfoxide, dimethyl-formamide, and acidic or alkaline water; Solubility (Solubility; ethanol, methanol, and water): slightly soluble in ethanol, methanol, and water; MIC [17]: 3.1 µg/mL (≈ 3.56 µM)
